Assay results as given in PubChem BioAssay AID248 (DTP/NCI, 2004).
Several values for one entry are separate records, joined by “and”; a condition that tells them apart may be missing. Equal entries are not always repeated. Toxic doses and inconclusive results are not listed.

System: L1210 leukemia ip in BDF1 mice, survival T/C
Test: NCI In Vivo Anticancer Drug Screen. Data for tumor model L1210 Leukemia (intraperitoneal) in B6D2F1 (BDF1) mice
Details: higher = longer survival
How it was run: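 Transplantable tumor model; survival measured in treated vs vehicle control mice. Value = treated/control.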

[1] = endpoint: mean survival time, dose: 200.0 mg/kg/injection, schedule: Q01DX001 (ip), vehicle: saline
[2] = endpoint: mean survival time, dose: 400.0 mg/kg/injection, schedule: Q01DX001 (ip), vehicle: saline
[3] = endpoint: mean survival time, dose: 100.0 mg/kg/injection, schedule: Q01DX009 (ip), vehicle: saline with Tween-80
[4] = endpoint: mean survival time, dose: 200.0 mg/kg/injection, schedule: Q01DX009 (ip), vehicle: saline with Tween-80
[5] = endpoint: mean survival time, dose: 200.0 mg/kg/injection, schedule: Q04DX003 (ip), vehicle: saline with Tween-80
[6] = endpoint: mean survival time, dose: 400.0 mg/kg/injection, schedule: Q01DX009 (ip), vehicle: saline with Tween-80
[7] = endpoint: mean survival time, dose: 100.0 mg/kg/injection, schedule: Q04DX002 (ip), vehicle: saline
[8] = endpoint: mean survival time, dose: 200.0 mg/kg/injection, schedule: Q04DX002 (ip), vehicle: saline
[9] = endpoint: mean survival time, dose: 100.0 mg/kg/injection, schedule: Q04DX003 (ip), vehicle: saline with Tween-80
[10] = endpoint: mean survival time, dose: 75.0 mg/kg/injection, schedule: Q01DX001 (ip), vehicle: saline
[11] = endpoint: mean survival time, dose: 150.0 mg/kg/injection, schedule: Q01DX001 (ip), vehicle: saline

Nc1ncnc2c1ncn2C1OCC(OCc2ccccc2)C(OCc2ccccc2)C1OCc1ccccc1 (configuration not stated)
T/C (endpoint: mean survival time, dose: 100.0 mg/kg/injection, schedule: Q01DX001 (ip), vehicle: saline): 98 % of control | T/C (endpoint: mean survival time, dose: 178.0 mg/kg/injection, schedule: Q01DX001 (ip), vehicle: saline): 97 % of control and 104 % of control | T/C [1]: 98 % of control and 96 % of control | T/C (endpoint: mean survival time, dose: 267.0 mg/kg/injection, schedule: Q01DX001 (ip), vehicle: saline): 97 % of control and 103 % of control | T/C [2]: 101 % of control and 220 % of control and 93 % of control | T/C (endpoint: mean survival time, dose: 600.0 mg/kg/injection, schedule: Q01DX001 (ip), vehicle: saline): 97 % of control and 101 % of control

CCOC(=O)CCC(C)Br (configuration not stated)
T/C (endpoint: mean survival time, dose: 50.0 mg/kg/injection, schedule: Q01DX009 (ip), vehicle: saline with Tween-80): 97 % of control | T/C [3]: 101 % of control | T/C [4]: 108 % of control

COC1=CCC2=C(C1)CC(C)O2 (configuration not stated)
T/C (endpoint: mean survival time, dose: 100.0 mg/kg/injection, schedule: Q04DX003 (ip), vehicle: acetone): 93 % of control | T/C (endpoint: mean survival time, dose: 200.0 mg/kg/injection, schedule: Q04DX003 (ip), vehicle: acetone): 102 % of control | T/C (endpoint: mean survival time, dose: 400.0 mg/kg/injection, schedule: Q04DX003 (ip), vehicle: acetone): 93 % of control

O=C1C(=O)N(CNC(c2ccccc2)c2ccccc2)c2ccccc21
T/C [5]: 87 % of control | T/C [6]: 96 % of control

O=C1NC(c2cccc(OCc3ccccc3)c2)Nc2ccccc21 (configuration not stated)
T/C (endpoint: mean survival time, dose: 50.0 mg/kg/injection, schedule: Q01DX009 (ip), vehicle: Klucel (hydroxypropylcellulose) (HPC)): 105 % of control | T/C (endpoint: mean survival time, dose: 100.0 mg/kg/injection, schedule: Q01DX009 (ip), vehicle: Klucel (hydroxypropylcellulose) (HPC)): 107 % of control | T/C (endpoint: mean survival time, dose: 150.0 mg/kg/injection, schedule: Q01DX009 (ip), vehicle: Klucel (hydroxypropylcellulose) (HPC)): 109 % of control

COc1cc(N(CCCl)CCCl)c(OC)cc1C=Nc1ccccc1C(=O)O
T/C (endpoint: mean survival time, dose: 2.6 mg/kg/injection, schedule: Q01DX009 (ip), vehicle: carboxymethylcellulose (CMC)): 108 % of control | T/C (endpoint: mean survival time, dose: 4.4 mg/kg/injection, schedule: Q01DX009 (ip), vehicle: carboxymethylcellulose (CMC)): 116 % of control | T/C (endpoint: mean survival time, dose: 5.5 mg/kg/injection, schedule: Q01DX001 (ip), vehicle: Klucel (hydroxypropylcellulose) (HPC)): 109 % of control | T/C (endpoint: mean survival time, dose: 6.6 mg/kg/injection, schedule: Q01DX009 (ip), vehicle: carboxymethylcellulose (CMC)): 123 % of control | T/C (endpoint: mean survival time, dose: 10.0 mg/kg/injection, schedule: Q01DX009 (ip), vehicle: carboxymethylcellulose (CMC)): 123 % of control | T/C (endpoint: mean survival time, dose: 11.0 mg/kg/injection, schedule: Q01DX001 (ip), vehicle: Klucel (hydroxypropylcellulose) (HPC)): 111 % of control | T/C (endpoint: mean survival time, dose: 19.0 mg/kg/injection, schedule: Q01DX001 (ip), vehicle: carboxymethylcellulose (CMC)): 117 % of control | T/C (endpoint: mean survival time, dose: 22.0 mg/kg/injection, schedule: Q01DX001 (ip), vehicle: Klucel (hydroxypropylcellulose) (HPC)): 117 % of control | T/C (endpoint: mean survival time, dose: 29.0 mg/kg/injection, schedule: Q01DX001 (ip), vehicle: carboxymethylcellulose (CMC)): 118 % of control

O=c1nc(NC(=S)Nc2ccn(C3OC(CO)C(O)C3O)c(=O)n2)ccn1C1OC(CO)C(O)C1O (configuration not stated)
T/C (endpoint: mean survival time, dose: 50.0 mg/kg/injection, schedule: Q01DX001 (ip), vehicle: other): 104 % of control | T/C (endpoint: mean survival time, dose: 50.0 mg/kg/injection, schedule: Q01DX001 (ip), vehicle: water): 103 % of control and 106 % of control and 114 % of control | T/C (endpoint: mean survival time, dose: 100.0 mg/kg/injection, schedule: Q01DX001 (ip), vehicle: other): 110 % of control | T/C (endpoint: mean survival time, dose: 100.0 mg/kg/injection, schedule: Q01DX001 (ip), vehicle: water): 106 % of control | T/C (endpoint: mean survival time, dose: 100.0 mg/kg/injection, schedule: Q01DX005 (ip), vehicle: saline): 168 % of control and 188 % of control | T/C (endpoint: mean survival time, dose: 200.0 mg/kg/injection, schedule: Q01DX001 (ip), vehicle: other): 109 % of control and 116 % of control | T/C [1]: 158 % of control | T/C (endpoint: mean survival time, dose: 200.0 mg/kg/injection, schedule: Q01DX005 (ip), vehicle: saline): 206 % of control and 218 % of control | T/C (endpoint: mean survival time, dose: 400.0 mg/kg/injection, schedule: Q01DX001 (ip), vehicle: other): 193 % of control | T/C [2]: 217 % of control | T/C (endpoint: mean survival time, dose: 400.0 mg/kg/injection, schedule: Q01DX001 (ip), vehicle: water): 171 % of control and 215 % of control | T/C (endpoint: mean survival time, dose: 600.0 mg/kg/injection, schedule: Q01DX001 (ip), vehicle: other): 163 % of control | T/C (endpoint: mean survival time, dose: 800.0 mg/kg/injection, schedule: Q01DX001 (ip), vehicle: saline): 452 % of control | T/C (endpoint: mean survival time, dose: 800.0 mg/kg/injection, schedule: Q01DX001 (ip), vehicle: water): 196 % of control and 177 % of control and 361 % of control | T/C (endpoint: mean survival time, dose: 1600.0 mg/kg/injection, schedule: Q01DX001 (ip), vehicle: water): 368 % of control | T/C (endpoint: median survival time, dose: 12.5 mg/kg/injection, schedule: Q03HX024 (ip), vehicle: saline): 180 % of control | T/C (endpoint: median survival time, dose: 25.0 mg/kg/injection, schedule: Q03HX024 (ip), vehicle: saline): 180 % of control | T/C (endpoint: median survival time, dose: 50.0 mg/kg/injection, schedule: Q03HX024 (ip), vehicle: saline): 295 % of control | T/C (endpoint: median survival time, dose: 100.0 mg/kg/injection, schedule: Q01DX009 (ip), vehicle: saline): 190 % of control | T/C (endpoint: median survival time, dose: 200.0 mg/kg/injection, schedule: Q01DX001 (oral), vehicle: saline): 104 % of control | T/C (endpoint: median survival time, dose: 200.0 mg/kg/injection, schedule: Q01DX009 (ip), vehicle: saline): 152 % of control | T/C (endpoint: median survival time, dose: 200.0 mg/kg/injection, schedule: Q04DX003 (ip), vehicle: saline): 195 % of control | T/C (endpoint: median survival time, dose: 400.0 mg/kg/injection, schedule: Q01DX001 (ip), vehicle: saline): 185 % of control | T/C (endpoint: median survival time, dose: 400.0 mg/kg/injection, schedule: Q01DX001 (oral), vehicle: saline): 104 % of control | T/C (endpoint: median survival time, dose: 400.0 mg/kg/injection, schedule: Q04DX003 (ip), vehicle: saline): 233 % of control | T/C (endpoint: median survival time, dose: 800.0 mg/kg/injection, schedule: Q01DX001 (ip), vehicle: saline): 233 % of control | T/C (endpoint: median survival time, dose: 800.0 mg/kg/injection, schedule: Q01DX001 (oral), vehicle: saline): 100 % of control | T/C (endpoint: median survival time, dose: 800.0 mg/kg/injection, schedule: Q04DX003 (ip), vehicle: saline): 342 % of control | T/C (endpoint: median survival time, dose: 1600.0 mg/kg/injection, schedule: Q01DX001 (ip), vehicle: saline): 204 % of control

CCN(CC)Cc1ccccc1COC(=O)c1ccc(OC)cc1
T/C [7]: 103 % of control | T/C [8]: 103 % of control

CCOC(=O)c1ccc(NC(=O)c2cccc(F)c2)cc1
T/C [7]: 91 % of control | T/C [8]: 105 % of control | T/C (endpoint: mean survival time, dose: 400.0 mg/kg/injection, schedule: Q04DX002 (ip), vehicle: saline): 109 % of control

O=S(=O)(Nc1ccc2ccccc2c1)c1cccc2ccccc12
T/C (endpoint: mean survival time, dose: 100.0 mg/kg/injection, schedule: Q04DX003 (ip), vehicle: Klucel (hydroxypropylcellulose) (HPC)): 101 % of control | T/C (endpoint: mean survival time, dose: 200.0 mg/kg/injection, schedule: Q04DX003 (ip), vehicle: Klucel (hydroxypropylcellulose) (HPC)): 93 % of control | T/C (endpoint: mean survival time, dose: 400.0 mg/kg/injection, schedule: Q04DX003 (ip), vehicle: Klucel (hydroxypropylcellulose) (HPC)): 101 % of control

CCOC(=O)C(=O)C1CCNC1=O (configuration not stated)
T/C (endpoint: mean survival time, dose: 12.5 mg/kg/injection, schedule: Q04DX003 (ip), vehicle: saline with Tween-80): 92 % of control | T/C (endpoint: mean survival time, dose: 25.0 mg/kg/injection, schedule: Q04DX003 (ip), vehicle: saline with Tween-80): 95 % of control | T/C (endpoint: mean survival time, dose: 50.0 mg/kg/injection, schedule: Q04DX003 (ip), vehicle: saline with Tween-80): 97 % of control

CCOC(=O)c1cnc(SC)nc1Nc1ccccc1Cl
T/C [9]: 87 % of control | T/C [5]: 87 % of control

CC(=N\N=C(N)N)/C(C)=N/N=C(N)N
T/C [10]: 101 % of control | T/C [11]: 98 % of control

O=C1c2ccccc2C(=O)C1(c1ccccc1)c1ccccc1
T/C (endpoint: mean survival time, dose: 100.0 mg/kg/injection, schedule: Q01DX001 (ip), vehicle: carboxymethylcellulose (CMC)): 103 % of control | T/C (endpoint: mean survival time, dose: 200.0 mg/kg/injection, schedule: Q01DX001 (ip), vehicle: carboxymethylcellulose (CMC)): 97 % of control | T/C (endpoint: mean survival time, dose: 400.0 mg/kg/injection, schedule: Q01DX001 (ip), vehicle: carboxymethylcellulose (CMC)): 92 % of control

O=c1cc(O)ccn1CC(O)c1ccc(Cl)s1 (configuration not stated)
T/C [3]: 89 % of control | T/C [9]: 100 % of control | T/C [4]: 88 % of control | T/C [5]: 98 % of control | T/C [6]: 94 % of control | T/C (endpoint: mean survival time, dose: 400.0 mg/kg/injection, schedule: Q04DX003 (ip), vehicle: saline with Tween-80): 99 % of control

CCCCCCC(=O)OCc1ccc(-c2ccccc2)cc1
T/C [10]: 90 % of control | T/C [11]: 87 % of control | T/C (endpoint: mean survival time, dose: 300.0 mg/kg/injection, schedule: Q01DX001 (ip), vehicle: saline): 92 % of control
